Measured values published in patent US20220062379A1, “METHODS AND COMPOSITIONS FOR MODULATING IMMUNE DYSREGULATION” (The General Hospital Corporation, priority 2019, published 2022).
Values belong to the molecule of their own block, whether it stands above or below them.

How the values were obtained:
[1] = tested on: proinflammatory cytokine release; test: Whole blood cytokine release assay, cytokines not itemised; assay type: cell-based, human; conditions: for Effect on (proinflammatory) cytokine release in whole blood assay (in words): in response to LPS stimulation
Procedure: (§1) Fresh, anonymized, heparinized, human blood from male donors was diluted 1:3 with RPMI containing penicillin and streptomycin. 150 μl diluted blood was added to each well of a 96 well plate then acclimatized to 37° C. and 5% CO2 for 1 hour. Inhibitors were prepared as described below then added to the diluted blood in 25 μl volume. After a further hour at 37° C. with 5% CO2, diluted blood was stimulated with LPS diluted in 25 μl RPMI containing penicillin and streptomycin to a final concentration of 1.5 ng/ml. After 18 h at 37° C. and 5% CO2, diluted blood was centrifuged at 500×g for 5 min and supernatant collected and stored at −20° C. until ELISAs were performed. Data are presented as mean inhibition relative to vehicle control ±95% confidence intervals, n=3-4 independent experiments.
(§2) Inhibitors and vehicles used for resuspension were: Compound 26, EMD Millipore, Cat #5.31237.0001, resuspended in DMSO; PF 06650833, R & D Systems, Cat #6373, resuspended in DMSO; OEPC (oleyloxyethyl phosphorylcholine), Santa Cruz Biotechnology, item # sc-200711, resuspended in DMSO; YM26734, Santa Cruz Biotechnology, item # sc-204410, resuspended in DMSO; Isoquercetin, Cayman Chemical, item #24926, resuspended in DMSO; ISA-2011B, Medchem Express, cat # HY-16937, resuspended in DMSO; Benzamil, TOCRIS, Cat #3380/10, resuspended in water; Cell permeable NFAT inhibitor (11R-VIVIT), Tocris, Cat #5710, resuspended in PBS. ELISAs were performed using Duoset reagents from R&D systems, catalogue # DY210 (human TNF), # DY206 (human IL6), and #DY201 (human IL-1β).
Where direct chemical modulators of the proposed inflammatory modulators were available, we tested their effect on endothelial permeability using ECIS and/or on the leukocyte inflammatory response using the whole blood assay described above.
Agents used were SJ000291942 (Sigma #SML2087-5MG) and saxagliptin (Santa Cruz Biotechnology #sc-473161), both resuspended in DMSO.

[2] = tested on: IL1β; test: Whole blood cytokine release, IL-1β (ELISA); assay type: cell-based; conditions: diluted human whole blood, LPS 1.5 ng/ml, 18 h, mean ± 95% confidence intervals; for inhibition at 25 µM / inhibition at 50 µM / inhibition at 100 µM: read-out: % Inhibition of cytokine release, relative to vehicle: IL1β
Procedure: as §1, §2

[3] = tested on: IL6; test: Whole blood cytokine release, IL6 (ELISA); assay type: cell-based; conditions: diluted human whole blood, LPS 1.5 ng/ml, 18 h, mean ± 95% confidence intervals; for inhibition at 25 µM / inhibition at 50 µM / inhibition at 100 µM: read-out: % Inhibition of cytokine release, relative to vehicle: IL6
Procedure: as §1, §2

[4] = tested on: TNF; test: Whole blood cytokine release, TNF (ELISA); assay type: cell-based; conditions: diluted human whole blood, LPS 1.5 ng/ml, 18 h, mean ± 95% confidence intervals; for inhibition at 25 µM / inhibition at 50 µM / inhibition at 100 µM: read-out: % Inhibition of cytokine release, relative to vehicle: TNF
Procedure: as §1, §2

[5] = biological target: NFATC2 (Nuclear Factor Of Activated T Cells 2) (human)

Molecule: CCCCCCCCCCCCCCCCCCc1ccc(C(=O)/C=C/C(=O)O)cc1 [OBAA]
Effect on (proinflammatory) cytokine release in whole blood assay (in words) [1]: dose-dependent inhibition

Molecule: O=c1c(O[C@@H]2O[C@H](CO)[C@@H](O)[C@H](O)[C@H]2O)c(-c2ccc(O)c(O)c2)oc2cc(O)cc(O)c12 [Isoquertecin, Isoquercetin]
inhibition at 25 µM ([2]; 25 μM): 15% | inhibition at 50 µM ([2]; 50 μM): 25% | inhibition at 100 µM ([2]; 100 μM): 19% | inhibition at 25 µM ([3]; 25 μM): 26% | inhibition at 50 µM ([3]; 50 μM): 31% | inhibition at 100 µM ([3]; 100 μM): 26% | inhibition at 25 µM ([4]; 25 μM): 9% | inhibition at 50 µM ([4]; 50 μM): 23% | inhibition at 100 µM ([4]; 100 μM): 29%

Molecule: CCCCCCCC/C=C\CCCCCCCCOCCOP(=O)([O-])OCC[N+](C)(C)C [OEPC, oleyloxyethyl phosphorylcholine]
% Inhibition of cytokine release, relative to vehicle: IL6 ([3]; 12.5 μM): −3% ± 17.6% | % Inhibition of cytokine release, relative to vehicle: IL6 ([3]; 25 μM): 39% ± 14.1% | % Inhibition of cytokine release, relative to vehicle: IL6 ([3]; 50 μM): 65% ± 11.7% | % Inhibition of cytokine release, relative to vehicle: IL6 ([3]; 100 μM): 83% ± 6.2% | % Inhibition of cytokine release, relative to vehicle: TNF ([4]; 12.5 μM): −9% ± 17.3% | % Inhibition of cytokine release, relative to vehicle: TNF ([4]; 25 μM): 6% ± 17.4% | % Inhibition of cytokine release, relative to vehicle: TNF ([4]; 50 μM): 37% ± 14.7% | % Inhibition of cytokine release, relative to vehicle: TNF ([4]; 100 μM): 57% ± 6.5%

Molecule: CCc1ccc(OCC(=O)Nc2ccc(F)c([N+](=O)[O-])c2)cc1 [SJ000291942]
Proinflammatory cytokine secretion from whole blood (in words) ([1]; whole blood with and without LPS, BMP receptor signaling agonist, FIG. 81C): enhances proinflammatory cytokine secretion

Molecule: 11R-VIVIT
% Inhibition of cytokine release, relative to vehicle: IL1β ([2]; 12.5 μM): 32% ± 13.0% | % Inhibition of cytokine release, relative to vehicle: IL1β ([2]; 25 μM): 48% ± 27.4% | % Inhibition of cytokine release, relative to vehicle: IL1β ([2]; 50 μM): 51% ± 26.3% | % Inhibition of cytokine release, relative to vehicle: IL6 ([3]; 12.5 μM): −10% ± 16.7% | % Inhibition of cytokine release, relative to vehicle: IL6 ([3]; 25 μM): 2% ± 32.9% | % Inhibition of cytokine release, relative to vehicle: IL6 ([3]; 50 μM): 87% ± 17.9% | % Inhibition of cytokine release, relative to vehicle: TNF ([4]; 12.5 μM): 23% ± 12.2% | % Inhibition of cytokine release, relative to vehicle: TNF ([4]; 25 μM): 40% ± 7.1% | % Inhibition of cytokine release, relative to vehicle: TNF ([4]; 50 μM): 79% ± 14.3%

Molecule: NC(=NCc1ccccc1)NC(=O)c1nc(Cl)c(N)nc1N [Benzamil]
inhibition at 25 µM ([2]; 25 μM): 32% | inhibition at 50 µM ([2]; 50 μM): 48% | inhibition at 100 µM ([2]; 100 μM): 60% | inhibition at 25 µM ([3]; 25 μM): 11% | inhibition at 50 µM ([3]; 50 μM): 22% | inhibition at 100 µM ([3]; 100 μM): 65% | inhibition at 25 µM ([4]; 25 μM): 4% | inhibition at 50 µM ([4]; 50 μM): 23% | inhibition at 100 µM ([4]; 100 μM): 69%

Molecule: CCCCCCCCCCCC(=O)c1c(O)c(C(=O)CCCCCCCCCCC)c(O)c(C2CC(c3ccc(O)cc3)Oc3cc(O)ccc32)c1O (stereo not shown) [YM26734]
Effect on (proinflammatory) cytokine release in whole blood assay (in words) [1]: dose-dependent inhibition | % Inhibition of cytokine release, relative to vehicle: IL1β ([2]; 12.5 μM): 51% ± 12.0% | % Inhibition of cytokine release, relative to vehicle: IL1β ([2]; 25 μM): 65% ± 3.5% | % Inhibition of cytokine release, relative to vehicle: IL1β ([2]; 50 μM): 73% ± 11.3% | % Inhibition of cytokine release, relative to vehicle: IL1β ([2]; 100 μM): 78% ± 8.9% | % Inhibition of cytokine release, relative to vehicle: IL6 ([3]; 12.5 μM): 35% ± 18.8% | % Inhibition of cytokine release, relative to vehicle: IL6 ([3]; 25 μM): 51% ± 29.5% | % Inhibition of cytokine release, relative to vehicle: IL6 ([3]; 50 μM): 67% ± 21.7% | % Inhibition of cytokine release, relative to vehicle: IL6 ([3]; 100 μM): 67% ± 15.1% | % Inhibition of cytokine release, relative to vehicle: TNF ([4]; 12.5 μM): 41% ± 17.6% | % Inhibition of cytokine release, relative to vehicle: TNF ([4]; 25 μM): 55% ± 22.6% | % Inhibition of cytokine release, relative to vehicle: TNF ([4]; 50 μM): 64% ± 26.1% | % Inhibition of cytokine release, relative to vehicle: TNF ([4]; 100 μM): 52% ± 22.7%

Molecule: CN1CC(=O)N2[C@H](c3c[nH]c4ccc(Cl)cc34)c3cc4c(cc3C[C@H]2C1=O)OCO4 [ISA-2011B]
Effect on (proinflammatory) cytokine release in whole blood assay (in words) [1]: inhibits cytokine release | % Inhibition of cytokine release, relative to vehicle: IL1β ([2]; 1 μM): 17% ± 9% | % Inhibition of cytokine release, relative to vehicle: IL1β ([2]; 10 μM): 23% ± 6% | % Inhibition of cytokine release, relative to vehicle: IL1β ([2]; 100 μM): 86% ± 2.9% | % Inhibition of cytokine release, relative to vehicle: IL6 ([3]; 1 μM): −7% ± 7.7% | % Inhibition of cytokine release, relative to vehicle: IL6 ([3]; 10 μM): 6% ± 19.7% | % Inhibition of cytokine release, relative to vehicle: IL6 ([3]; 100 μM): 24% ± 19.5% | % Inhibition of cytokine release, relative to vehicle: TNF ([4]; 1 μM): 1% ± 11.2% | % Inhibition of cytokine release, relative to vehicle: TNF ([4]; 10 μM): 17% ± 7.6% | % Inhibition of cytokine release, relative to vehicle: TNF ([4]; 100 μM): 55% ± 8.8%

% Inhibition of cytokine release, relative to vehicle (TNF; LPS-stimulated human whole blood, 50 µM 11R-VIVIT) [5]: 79%
Molecule: Cell permeable NFAT inhibitor (11R-VIVIT) (peptide)
